In US7491711B2, “Methods of treatment using 3-desoxy vitamin D3 analogs” (Roche Palo Alto LLC, priority 2001, dated 2009):
Marks after values point to notes of the source that are not given here.

Legend:
[1] = Serum calcium in the rat ovariectomy model (safety); format: in vivo; settings: OVX rats
Method: (§1) Comparison of the efficacy of Compound 7 to that of 1,25-dihydroxy vitamin D3 (i.e., VD3), was made using the standard animal model for post menopausal osteopenia, the rat ovariectomy model. Three month old rats weighing 285gm were ovariectomized (OVX), and then treated for 8 weeks beginning 1 week post OVX. Drugs were administered once/day orally in miglyol (medium chain triglyceride) vehicle. Blood and urine samples were collected at the 3 wk and 6 wk timepoint, and bone mineral density (BMD) was determined in vivo at 6 wk using Dual Energy X-ray Absorptiometry (Hologic QDR-4500™ Bone Scanner). At 8 weeks, the animals were sacrificed, and the lumbar vertebrae and femur bones removed for ex vivo BMD determination (Lunar PixiMus™ Bone Scanner) and biomechanical testing for strength. Data for each compound are reported in the accompanying tables for the highest safe doses.
(§2) The doses being compared all gave 3 wk serum calcium levels of 9.3 mg/dl, and 6 wk levels of 9.8±0.1 mg/dl. At these doses, the urinary calcium output per 24 hr sample was the same for the 0.4 nmol/kg dose of VD3 and the 0.5 nmol/kg dose of Compound 7. […] These doses represent those expected to give maximal efficacy achievable safely, as higher doses of each compound are known to be hypercalcemic. […] Failure Load, the amount of force needed to fracture the L5 vertebra, was determined in axial compression testing.

[2] = Urinary calcium in the rat ovariectomy model (safety); format: in vivo; settings: OVX rats; for urinary calcium output per 24 hr sample, compared between the two substances: 0.4 nmol/kg dose of VD3 and 0.5 nmol/kg dose of Compound 7
Method: as §1, §2

[3] = system: rat ovariectomy model (post menopausal osteopenia); assay: Bone mineral density in vivo (Dual Energy X-ray Absorptiometry), rat ovariectomy model; settings: OVX rats
Method: as §1, §2

[4] = system: rat ovariectomy model (post menopausal osteopenia); assay: L5 bone density ex vivo (BMD, BMC), rat ovariectomy model; format: in vivo; settings: OVX rats
Method: as §1

[5] = system: rat ovariectomy model (post menopausal osteopenia); assay: Urinary deoxypyridinolines (marker of bone resorption), rat ovariectomy model; format: in vivo; settings: OVX rats
Method: as §1, §2

[6] = system: rat ovariectomy model (post menopausal osteopenia); assay: L5 vertebral body biomechanics (axial compression testing), rat ovariectomy model; format: in vivo; settings: OVX rats
Method: as §1, §2

[7] = system: women with postmenopausal osteoporosis; settings: cited from earlier work
[8] = system: patients commencing long term treatment with prednisone or prednisolone; settings: 0.5 to 1.0 micrograms/day plus calcium 1000 mg/day, with or without intranasal calcitonin 400 IU/day; cited from earlier work
[9] = Week 3, 0.012 nmol/kg once/day orally
[10] = Week 3, 0.04 nmol/kg once/day orally
[11] = Week 6, 0.012 nmol/kg once/day orally
[12] = Week 6, 0.04 nmol/kg once/day orally
[13] = Week 8, 0.012 nmol/kg once/day orally
[14] = Week 3, 0.5 nmol/kg once/day orally
[15] = Week 6, 0.5 nmol/kg once/day orally
[16] = Week 8, 0.5 nmol/kg once/day orally

Compound: C=C1/C(=C\C=C2/CCC[C@]3(C)[C@@H]([C@H](C)CCCC(C)(C)O)CC[C@@H]23)C[C@@H](O)C[C@@H]1O [VitD, 1,25-dihydroxy vitamin D3]
- SERUM CALCIUM, Mean [1, 9]: 9.3 nd mg/dl
- SERUM CALCIUM, Mean [1, 10]: 9.3 ns mg/dl
- SERUM CALCIUM, Mean [1, 11]: 9.8 **+ mg/dl
- SERUM CALCIUM, Mean [1, 12]: 9.7 ** mg/dl
- urinary calcium output per 24 hr sample, compared between the two substances [2]: the same
- URINARY CALCIUM, Mean [2, 9]: 0.31 ** MG/MMOL Creatineine/day
- URINARY CALCIUM, Mean [2, 10]: 0.51 **+ MG/MMOL Creatineine/day
- URINARY CALCIUM, Mean [2, 11]: 0.43 ** MG/MMOL Creatineine/day
- URINARY CALCIUM, Mean [2, 12]: 0.71 **++ MG/MMOL Creatineine/day
- PERCENT BMD > OVX CONTROL in vivo, Distal Femur, Mean [3, 11]: 2.8 ++ PERCENT
- PERCENT BMD > OVX CONTROL in vivo, L2-L4 Vertebrae, Mean [3, 11]: 3.3 ++ PERCENT
- PERCENT BMD > OVX CONTROL in vivo, L5 vertebrae, Mean [3, 11]: 2.7 ++ PERCENT
- PERCENT BMD > OVX CONTROL in vivo, Prox Femur, Mean [3, 11]: 3.5 ns PERCENT
- PERCENT BMD > OVX CONTROL in vivo, Whole Femur, Mean [3, 11]: 3.3 + PERCENT
- PERCENT BMD > OVX CONTROL in vivo, Distal Femur, Mean [3, 12]: 2.8 ++ PERCENT
- PERCENT BMD > OVX CONTROL in vivo, L2-L4 Vertebrae, Mean [3, 12]: 5.4 * PERCENT
- PERCENT BMD > OVX CONTROL in vivo, L5 vertebrae, Mean [3, 12]: 4.9 ++ PERCENT
- PERCENT BMD > OVX CONTROL in vivo, Prox Femur, Mean [3, 12]: 0.7 ++ PERCENT
- PERCENT BMD > OVX CONTROL in vivo, Whole Femur, Mean [3, 12]: 1.9 ++ PERCENT
- L5 Bone Density Ex Vivo, BMC, Mean [4, 13]: 0.035 ns g
- L5 Bone Density Ex Vivo, BMD, Mean [4, 13]: 0.103 ++ g/cm^2
- URINARY D-PYD, Mean [5, 9]: 0.81 ++ nM/mM Creatinine
- URINARY D-PYD, Mean [5, 10]: 0.75 ++ nM/mM Creatinine
- URINARY D-PYD, Mean [5, 11]: 0.78 ++ nM/mM Creatinine
- URINARY D-PYD, Mean [5, 12]: 0.76 ++ nM/mM Creatinine
- L5 Vertebral Body BIOMECHANICS, Failure Load, Mean [6, 13]: 342 * N
- lower rate of new vertebral fractures compared with patients receiving elemental calcium 1000 mg/day ([7]; mild to moderate disease, 0.25 microgram twice daily, after 3 years of treatment): 3 fold
- tolerability ([7]; patients, overall): well tolerated
- steroid-induced bone loss [8]: prevented steroid-induced bone loss

Compound: C=C1/C(=C\C=C2/CCC[C@]3(C)[C@@H](C4(C/C=C/C(O)(C(F)(F)F)C(F)(F)F)CC4)CC[C@@H]23)CCC[C@@H]1O [Compound 27]
- SERUM CALCIUM, Mean [1, 14]: 9.3 ns mg/dl
- SERUM CALCIUM, Mean [1, 15]: 9.9 **+ mg/dl
- urinary calcium output per 24 hr sample, compared between the two substances [2]: the same
- URINARY CALCIUM, Mean [2, 14]: 0.51 **+ MG/MMOL Creatineine/day
- URINARY CALCIUM, Mean [2, 15]: 0.72 **++ MG/MMOL Creatineine/day
- PERCENT BMD > OVX CONTROL in vivo, Distal Femur, Mean [3, 15]: 8.5 ** PERCENT
- PERCENT BMD > OVX CONTROL in vivo, L2-L4 Vertebrae, Mean [3, 15]: 10.3 ** PERCENT
- PERCENT BMD > OVX CONTROL in vivo, L5 vertebrae, Mean [3, 15]: 8.7 ** PERCENT
- PERCENT BMD > OVX CONTROL in vivo, Prox Femur, Mean [3, 15]: 5.7 ** PERCENT
- PERCENT BMD > OVX CONTROL in vivo, Whole Femur, Mean [3, 15]: 6.3 ** PERCENT
- BMD at all of the bone sites listed, compared with VD3 ([3]; doses which give equivalent serum calcium levels): significantly higher
- L5 Bone Density Ex Vivo, BMC, Mean [4, 16]: 0.039 ** g
- L5 Bone Density Ex Vivo, BMD, Mean [4, 16]: 0.112 ** g/cm^2
- Urinary deoxy-pyridinolines (marker of bone resorption), compared with VD3 ([5]; 6 weeks): significantly less
- URINARY D-PYD, Mean [5, 14]: 0.65 *+ nM/mM Creatinine
- URINARY D-PYD, Mean [5, 15]: 0.57 **+ nM/mM Creatinine
- vertebral bone strength ([6]; L5 vertebra): stronger vertebral bone
- L5 Vertebral Body BIOMECHANICS, Failure Load, Mean [6, 16]: 419 ** N
- Failure Load, force needed to fracture the L5 vertebra, compared with VD3 ([6]; axial compression testing, highest safe doses): Significantly more force was needed
